Bridges are numbered along the chain shown (N, C = ends). Where no end group is shown, it is not given here.
T1: human PAC1 receptor (Homo sapiens, UniProt P41586)
T1 construct: SHSY-5Y (human neuroblastoma cell line) and RG-2 (rat glioma cell line) cells endogenously express human and rat PAC1 receptors, respectively; endogenous in cells; host or cells: SHSY-5Y human neuroblastoma cells
T1 sequence (P41586 21-468): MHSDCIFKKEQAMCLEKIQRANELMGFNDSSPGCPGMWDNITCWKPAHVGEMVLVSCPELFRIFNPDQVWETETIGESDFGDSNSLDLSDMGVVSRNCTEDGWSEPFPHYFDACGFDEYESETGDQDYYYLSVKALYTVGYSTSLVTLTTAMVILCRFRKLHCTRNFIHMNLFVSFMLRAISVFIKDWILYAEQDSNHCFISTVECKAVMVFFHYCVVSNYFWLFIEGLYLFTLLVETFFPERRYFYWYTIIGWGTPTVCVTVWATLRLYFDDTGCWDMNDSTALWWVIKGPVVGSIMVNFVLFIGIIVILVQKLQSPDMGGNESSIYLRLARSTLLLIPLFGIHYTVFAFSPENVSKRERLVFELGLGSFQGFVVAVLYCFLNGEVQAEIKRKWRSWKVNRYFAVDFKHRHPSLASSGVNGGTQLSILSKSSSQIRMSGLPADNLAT

T2: rat PAC1 receptor (Rattus norvegicus, UniProt P32215)
T2 construct: SHSY-5Y (human neuroblastoma cell line) and RG-2 (rat glioma cell line) cells endogenously express human and rat PAC1 receptors, respectively; endogenous in cells; host or cells: RG-2 rat glioma cells
T2 sequence (P32215 20-523): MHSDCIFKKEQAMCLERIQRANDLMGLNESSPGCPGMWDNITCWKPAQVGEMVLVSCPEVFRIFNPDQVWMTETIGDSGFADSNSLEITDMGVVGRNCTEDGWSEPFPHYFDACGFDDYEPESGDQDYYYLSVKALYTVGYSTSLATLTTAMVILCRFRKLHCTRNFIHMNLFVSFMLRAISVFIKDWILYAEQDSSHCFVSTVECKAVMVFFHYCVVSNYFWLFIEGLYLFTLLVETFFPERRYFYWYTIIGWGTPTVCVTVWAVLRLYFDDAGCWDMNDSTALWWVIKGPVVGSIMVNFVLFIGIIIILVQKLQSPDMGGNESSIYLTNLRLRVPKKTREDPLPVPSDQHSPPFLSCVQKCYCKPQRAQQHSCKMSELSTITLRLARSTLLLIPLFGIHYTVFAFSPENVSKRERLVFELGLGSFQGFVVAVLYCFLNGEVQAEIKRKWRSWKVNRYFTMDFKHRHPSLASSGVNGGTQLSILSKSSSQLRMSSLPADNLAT

T3: PAC1 (Rattus norvegicus, UniProt P32215)
T3 construct: Naive male Sprague Dawley® rats aged 8-12 weeks at the time of the study were purchased from Charles River Laboratories; tissue Charles River Laboratories; host or cells: live male Sprague Dawley rats; dermal blood flow on abdominal skin
T3 sequence (P32215 20-523): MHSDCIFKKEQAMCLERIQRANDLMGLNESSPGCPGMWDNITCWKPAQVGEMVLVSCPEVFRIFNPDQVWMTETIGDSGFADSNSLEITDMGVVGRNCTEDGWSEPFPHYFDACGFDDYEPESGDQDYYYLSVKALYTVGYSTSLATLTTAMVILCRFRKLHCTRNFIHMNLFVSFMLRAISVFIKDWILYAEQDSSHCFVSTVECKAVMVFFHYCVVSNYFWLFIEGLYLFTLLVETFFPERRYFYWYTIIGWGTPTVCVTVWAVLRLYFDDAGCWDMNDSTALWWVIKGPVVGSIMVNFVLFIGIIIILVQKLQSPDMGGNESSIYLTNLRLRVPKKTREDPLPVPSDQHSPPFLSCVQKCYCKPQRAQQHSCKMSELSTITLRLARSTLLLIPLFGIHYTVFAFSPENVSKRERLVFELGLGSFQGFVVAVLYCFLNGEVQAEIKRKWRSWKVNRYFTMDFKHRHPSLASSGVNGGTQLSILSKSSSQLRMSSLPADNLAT

T4: rat PAC1 receptor (rat, UniProt P32215 20-523)
T4 sequence: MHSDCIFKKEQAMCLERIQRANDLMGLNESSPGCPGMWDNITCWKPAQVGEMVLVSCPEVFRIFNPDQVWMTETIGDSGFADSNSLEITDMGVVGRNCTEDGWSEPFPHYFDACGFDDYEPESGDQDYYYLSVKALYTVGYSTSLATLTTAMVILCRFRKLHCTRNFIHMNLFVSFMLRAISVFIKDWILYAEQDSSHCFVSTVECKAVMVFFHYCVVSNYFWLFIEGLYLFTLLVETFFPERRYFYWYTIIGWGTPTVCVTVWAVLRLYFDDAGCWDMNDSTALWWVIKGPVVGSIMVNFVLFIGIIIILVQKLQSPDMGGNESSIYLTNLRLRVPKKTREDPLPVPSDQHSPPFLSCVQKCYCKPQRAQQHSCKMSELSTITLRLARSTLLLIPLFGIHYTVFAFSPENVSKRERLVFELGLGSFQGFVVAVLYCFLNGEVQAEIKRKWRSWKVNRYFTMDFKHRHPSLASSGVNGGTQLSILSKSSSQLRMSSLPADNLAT


What was measured:
human PAC1 receptor = biological target: T1, human PAC1 receptor; assay: LANCE Ultra cAMP accumulation antagonist assay in SHSY-5Y cells; format: cell-based;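 further: inhibition of cAMP accumulation evoked by PAC1 agonist at its EC80 in SHSY-5Y cells endogenously expressing receptor, 30 min preincubation then 15 min agonist, TR-FRET readout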
rat PAC1 receptor [1] = biological target: T2, rat PAC1 receptor; assay: LANCE Ultra cAMP accumulation antagonist assay in RG-2 cells; format: cell-based;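 further: RG-2 rat glioma cells endogenously expressing PAC1, test peptide preincubated 30 min, then PAC1 agonist added at its EC80 for 15 min, cAMP accumulation read by LANCE Ultra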
Description: In order to determine the potency of peptide antagonists at the PAC1 receptor, functional cAMP accumulation assays using LANCE Ultra cAMP assay kit to measure the agonist and antagonist activity of PAC1 peptides were used. SHSY-5Y (human neuroblastoma cell line) and RG-2 (rat glioma cell line) cells endogenously express human and rat PAC1 receptors, respectively. Agonist activity of PAC1 peptides was tested by incubating with SHSY-5Y at 2,000 cells per well or RG-2 at 5,000 cells per well for 15 minutes at room temperature. PAC1 receptor agonist PACAP38 or maxadilan was included as a positive control. The reaction was stopped by adding detection mixture, europium (Eu) chelate-labeled cAMP tracer and cAMP-specific monoclonal antibodies labeled with the ULight™ dye, to all wells followed by a 60-minute incubation at room temperature. The assay plates were then read on an EnVision instrument at an emission wavelength of 665 and 615 nm and data were analyzed using Genedata Screener or GraphPad Prism software. A similar procedure was used in the antagonist assays by using a fixed concentration of PAC1 agonist. The concentrations of agonists were chosen based on their ECK) values at PAC1 receptors in SHSY-5Y or RG-2 cells. SHSY-5Y or RG-2 cells were added into 96-well half-area white plates. Serially diluted PAC1 peptides at ten concentrations were added and incubated for 30 minutes at room temperature. PAC1 agonist at EC80 concentration was then added and further incubated for 15 minutes at room temperature. The reaction was stopped by adding detection mixture to all wells followed by a 60-minute incubation at room temperature. The assay plates were read and analyzed the same way as that of agonist assay. Cells, agonists, and PAC1 peptides were prepared in freshly made assay buffer (F-12, 0.5 mM IBMX, 0.1 or 0.4% BSA (pH 7.4)). Detection mixture was made by mixing a 1/50 dilution of the Eu-cAMP tracer stock solution in cAMP Detection Buffer and a 1/150 dilution of the ULight-anti-cAMP stock solution in cAMP Detection Buffer. Europium (Eu) chelate-labeled cAMP tracer, cAMP-specific monoclonal antibodies labeled with the ULight™ dye, BSA, and detection buffer were provided in LANCE Ultra cAMP Kit from PerkinElmer

PAC1 = biological target: T3, PAC1; assay: Rat maxadilan-induced increase in blood flow (MIIBF) PD model, laser Doppler imaging; format: in vivo
Description: PAC1 peptide antagonists were also evaluated in an in vivo pharmacodynamic model—a model of maxadilan-induced increase in blood flow.
Naive male Sprague Dawley® rats aged 8-12 weeks at the time of the study were purchased from Charles River Laboratories. Animals were group-housed in non-sterile, ventilated micro-isolator housing in Amgen Assessment and Accreditation of Laboratory Animal Committee (AAALAC)-accredited facility. Animals had ad libitum access to pelleted feed (Harlan Teklad 2020X, Indianapolis, IN) and water (on-site generated reverse osmosis) via automatic watering system.
All PAC1 peptides were tested in a rat maxadilan-induced increase in blood flow (MIIBF) pharmacodynamic (PD) model with a laser Doppler imaging. A dosing solution of maxadilan (Bachem, H6734.0500) was prepared fresh daily by diluted maxadilan stock solution (0.5 mg/mL) in 1× PBS to the final concentration of 0.5 μg/mL. All tested peptides were prepared in 1× PBS at different concentrations depend on the dose required for the experiment and given in a single bolus i.v. or s.c. injection. A laser Doppler imager (LDI-2, Moor Instruments, Ltd, Wilmington, Del.) was used to measure dermal blood flow (DBF) on the shaved skin of the rat abdomen with a low-power laser beam generated by a 633 nm helium-neon bulb. The measurement resolution was 0.2 to 2 mm, with scanning distances between the instrument aperture and the tissue surface of 30 cm. In this report, DBF was measured and expressed as % change from baseline [100×(individual post-CAP flux-individual baseline flux)/individual baseline flux] and further calculated to % Inhibition to quantify the magnitude of drug effect [Mean of vehicle % change from BL−individual drug treated rat % change from BL)/Mean of vehicle % change from BL].
On the test day, following anesthetization with propofol, the rat's abdominal area was shaved and each animal was placed in a supine position on a temperature-controlled circulating warm-water pad to maintain a stable body temperature during the study. After a 10 to 15 minute stabilization period, a rubber O-ring (0.925 cm inner diameter, O-Rings West, Seattle, Wash.) was placed on the rat abdomen without directly positioning it over a visible blood vessel while the rat placed in a supine position on a temperature-controlled circulating warm-water pad to maintain a stable body temperature during the study. After placement of an O-ring on the selected area, a baseline (BL) DBF measurement was taken. After the BL scan, PAC1 peptides were administrated either 5 min for i.v., or 15 min for s.c. then followed by 20 μL (in 0.5 μg/mL) intradermal injection of maxadilan at the center of the O-ring. The post-maxadilan DBF was measured at 30 min and the post peptides time was 35 min for i.v. and 45 min for s.c. respectively. The O-ring serves as an area of interest in which the DBF will be analyzed within the O-ring.
All DBF results were expressed as the mean±SEM. A one-way ANOVA followed by Dunnett's Multiple Comparison Test (MCT) was used to assess the statistical significance of PAC1 peptides effects relative to the vehicle within the study. A p<0.05 was used to determine significance between any two groups.

[2] = rat plasma, 37° C., 0 h (baseline)
Description: (§1) To model degradation in blood, PAC1 peptides of the present application were incubated in vitro with rat plasma. The stability analysis was conducted in a manner similar to as previously described by Souverain et al. (J. of Pharmaceutical and Biomedical Analysis, 35 (2004) 913-920).
(§2) Briefly, PAC1 peptides were spiked into rat plasma and incubated at 37° C. for up to 6 hours. Employing the reverse stability technique for various time points, plasma samples were quenched by the addition of perchloric acid in water containing internal standard (IS) and vortexed undergoing protein precipitation extraction (PPE). Following the vortex mix, samples were centrifuged and the supernatant containing PAC1 peptide and IS was subsequently analyzed using a liquid chromatography mass-spectrometry (LC-MS) system (Sciex® API 5500). The peak area ratio of intact PAC1 peptide to IS was determined for each time point. Peptide stability was reported as a percentage of the peak area ratio at each time point relative to the peak are ratio of a baseline sample (pre-incubation).

in vitro = settings: rat, plasma
Description: as §1, §2

rat PAC1 receptor [3] = biological target: T4, rat PAC1 receptor; assay: cell-based or functional assay
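Wherever % Intact Peptide Remaining is given: peptides incubated in vitro in rat plasma at 37 °C up to 6 h, intact peptide quantified by LC-MS versus internal standard, expressed relative to pre-incubation baseline (100%).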

Row | Molecule | IC50 (human PAC1 receptor) [nM] | IC50 (rat PAC1 receptor [1]) [nM] | inhibition of MIIBF (dermal blood flow) (PAC1; single bolus i.v., lowest dose of 0.1 mg/kg, 5 min prior to maxadilan, 35 min post peptide treatment) | % Intact Peptide Remaining [2] [%] | remaining at 0.5 h (in vitro) [%] | remaining at 1 h (in vitro) [%] | remaining at 2 h (in vitro) [%] | remaining at 4 h (in vitro) [%] | remaining at 6 h (in vitro) [%] | inhibition of maxadilan-induced increase in DBF (PAC1; single bolus s.c., lowest dose of 0.3 mg/kg, 15 min prior to maxadilan, 45 min post peptide treatment) | rPAC1 IC50 with maxadilan challenge (cAMP assay, RG-2 cells); 100 nM > B ≥ 1 nM (rat PAC1 receptor [3]) [nM]
1 | CC[C@H](C)[C@H](NC(=O)[C@H](C)NC(=O)[C@H](CCCCN)NC(=O)[C@H](CCCNC(=N)N)NC(=O)[C@H](Cc1ccccc1)NC(=O)[C@H](CCC(N)=O)NC(=O)[C@@H]1CSSC[C@H](N)C(=O)N[C@@H](CC(=O)O)C(=O)N[C@@H](C)C(=O)N[C@@H]([C@@H](C)O)C(=O)N1)C(=O)N[C@@H](CC(=O)O)C(=O)N[C@@H](CC(=O)O)C(=O)N[C@H]1CSSC[C@@H](C(=O)N[C@@H](CCSC)C(=O)N[C@@H](CCCCN)C(=O)N[C@@H](CCC(N)=O)C(=O)N[C@@H](CCCCN)C(=O)N[C@@H](CCCCN)C(=O)N[C@@H](CCCCN)C(=O)N[C@@H](CCC(=O)O)C(=O)N[C@@H](Cc2ccccc2)C(=O)N[C@@H](CCCCN)C(=O)N[C@@H](C)C(=O)NCC(N)=O)NC(=O)C(C)(C)NC(=O)[C@H](CCCCN)NC(=O)[C@H](Cc2ccccc2)NC(=O)[C@H](C(C)C)NC(=O)[C@H](CO)NC(=O)CNC(=O)[C@@H]2CCCN2C(=O)[C@H](C(C)C)NC(=O)[C@H](CC(N)=O)NC(=O)[C@H](CO)NC(=O)[C@H](Cc2c[nH]cn2)NC(=O)[C@H](Cc2c[nH]cn2)NC(=O)[C@H](C)NC(=O)[C@H](CCC(N)=O)NC(=O)[C@H](CCCCN)NC(=O)[C@H](CCC(N)=O)NC1=O [SEQ ID NO 283] | 1 to 100 | 0.01 to 1 | statistically significant inhibition | 100 | 87.5 | 112 | 101 | 115 | 98.9 |  | 
2 | CDATCQFRKAIDDCARQAHHSNVPGSVFKACMKQKKKEWKAGH (disulfide 1-5, 14-31) [SEQ ID NO 151] | 0.01 to 1 | 0.01 to 1 |  | 100 | 120 | 87 | 104 | 112 | 107 |  | 
3 | CDATCQFRKAIDDCHLLAWHANVPGSVFKACMKQKKKEFKAG-NH2 (disulfide 1-5, 14-31) [SEQ ID NO 140] |  |  |  | 100 | 101 | 91.4 | 93.4 | 107 | 108 |  | 
4 | CDATCQFRKAIDDCQKQAHHSNVPGSVFKACMKQKKKEFKAGY (disulfide 1-5, 14-31) [SEQ ID NO 164] |  |  |  | 100 | 94.3 | 113 | 108 | 106 | 96.5 |  | 
5 | CDATCQFRKAIDDCYYRSWHSNVPGSVFKACMKQKKKEWKAG-NH2 (disulfide 1-5, 14-31) [SEQ ID NO 77] | 0.01 to 1 | 0.01 to 1 |  | 100 | 97.9 | 106 | 104 | 89.6 | 110 | statistically significant inhibition | 
6 | CDATCQFRKAIDDCYYYAMHSNVPGSVWKACMKQKKKEFKAG-NH2 (disulfide 1-5, 14-31) [SEQ ID NO 150] |  |  |  | 100 | 117 | 89.7 | 92.1 | 90.2 | 92.8 |  | 
7 | GCDATCQFRKAIDDCVRQAHHSNVPGSVFKACMKQKKKEWKAGH (disulfide 2-6, 15-32) [SEQ ID NO 88] | 0.01 to 1 | 0.01 to 1 |  | 100 | 81.4 | 90.8 | 84 | 110 | 100 |  | 
8 | CDATCQFRKAIDDCARQAYHSFKACMKQKKKEWKH (disulfide 1-5, 14-25) [SEQ ID NO 450] |  |  |  |  |  |  |  |  |  |  | < 100
9 | CDATCQFRKAIDDCARQAYHSFKACMKQKKKEWKAH (disulfide 1-5, 14-25) [SEQ ID NO 451] |  |  |  |  |  |  |  |  |  |  | < 100
10 | CDATCQFRKAIDDCARQAYHSACMKQKKKEWKAGH (disulfide 1-5, 14-23) [SEQ ID NO 449] |  |  |  |  |  |  |  |  |  |  | < 100
